Laboratory results reported in ChEMBL document CHEMBL5523675, “Novel mitochondrial and DNA damaging fluorescent Calix[4]arenes bearing isatin groups as aromatase inhibitors: Design, synthesis and anticancer activity” (Bioorg Med Chem, 2024).

What was measured:
[1] = Antiproliferative activity against human PNT1A cells assessed as inhibition of cell growth measured after 48 hrs by Alamar blue dye based assay; type: toxicity
[2] = system: MCF7; assay: Antiproliferative activity against human MCF7 cells assessed as inhibition of cell growth measured after 48 hrs by Alamar blue dye based assay; type: functional; settings: MCF7, 48 h
[3] = system: MDA-MB-231; assay: Antiproliferative activity against human MDA-MB-231 cells assessed as inhibition of cell growth measured after 48 hrs by Alamar blue dye based assay; type: functional; settings: MDA-MB-231, 48 h
[4] = system: PNT1A; assay: Induction of apoptosis in human PNT1A cells assessed as live cells incubated for 48 hrs by annexin V and 7-AAD staining based flow cytometry analysis (reference value: 99.69%); type: functional
[5] = system: PNT1A; assay: Induction of apoptosis in human PNT1A cells assessed as early apoptotic cells incubated for 48 hrs by annexin V and 7-AAD staining based flow cytometry analysis (reference value: 0.04%); type: functional
[6] = system: PNT1A; assay: Induction of apoptosis in human PNT1A cells assessed as late apoptotic cells incubated for 48 hrs by annexin V and 7-AAD staining based flow cytometry analysis (reference value: 0.04%); type: functional
[7] = system: PNT1A; assay: Induction of apoptosis in human PNT1A cells assessed as necrosis incubated for 48 hrs by annexin V and 7-AAD staining based flow cytometry analysis (reference value: 0.22%); type: functional
[8] = system: MDA-MB-231; assay: Induction of apoptosis in human MDA-MB-231 cells assessed as live cells incubated for 48 hrs by annexin V and 7-AAD staining based flow cytometry analysis (reference value: 99.61%); type: functional
[9] = system: MDA-MB-231; assay: Induction of apoptosis in human MDA-MB-231 cells assessed as early apoptotic cells incubated for 48 hrs by annexin V and 7-AAD staining based flow cytometry analysis (reference value: 0.18%); type: functional
[10] = system: MDA-MB-231; assay: Induction of apoptosis in human MDA-MB-231 cells assessed as late apoptotic cells incubated for 48 hrs by annexin V and 7-AAD staining based flow cytometry analysis (reference value: 0.12%); type: functional
[11] = system: MDA-MB-231; assay: Induction of apoptosis in human MDA-MB-231 cells assessed as necrosis incubated for 48 hrs by annexin V and 7-AAD staining based flow cytometry analysis (reference value: 0.09%); type: functional
[12] = system: MCF7; assay: Induction of apoptosis in human MCF7 cells assessed as live cells incubated for 48 hrs by annexin V and 7-AAD staining based flow cytometry analysis (reference value: 99.14%); type: functional
[13] = system: MCF7; assay: Induction of apoptosis in human MCF7 cells assessed as early apoptotic cells incubated for 48 hrs by annexin V and 7-AAD staining based flow cytometry analysis (reference value: 0.14%); type: functional
[14] = system: MCF7; assay: Induction of apoptosis in human MCF7 cells assessed as late apoptotic cells incubated for 48 hrs by annexin V and 7-AAD staining based flow cytometry analysis (reference value: 0.68%); type: functional
[15] = system: MCF7; assay: Induction of apoptosis in human MCF7 cells assessed as necrosis incubated for 48 hrs by annexin V and 7-AAD staining based flow cytometry analysis (reference value: 0.03%); type: functional
[16] = biological target: T1, Aromatase (Homo sapiens, UniProt P11511); assay: Inhibition of human Aromatase by fluorimetric assay
T1 sequence (P11511 whole entry): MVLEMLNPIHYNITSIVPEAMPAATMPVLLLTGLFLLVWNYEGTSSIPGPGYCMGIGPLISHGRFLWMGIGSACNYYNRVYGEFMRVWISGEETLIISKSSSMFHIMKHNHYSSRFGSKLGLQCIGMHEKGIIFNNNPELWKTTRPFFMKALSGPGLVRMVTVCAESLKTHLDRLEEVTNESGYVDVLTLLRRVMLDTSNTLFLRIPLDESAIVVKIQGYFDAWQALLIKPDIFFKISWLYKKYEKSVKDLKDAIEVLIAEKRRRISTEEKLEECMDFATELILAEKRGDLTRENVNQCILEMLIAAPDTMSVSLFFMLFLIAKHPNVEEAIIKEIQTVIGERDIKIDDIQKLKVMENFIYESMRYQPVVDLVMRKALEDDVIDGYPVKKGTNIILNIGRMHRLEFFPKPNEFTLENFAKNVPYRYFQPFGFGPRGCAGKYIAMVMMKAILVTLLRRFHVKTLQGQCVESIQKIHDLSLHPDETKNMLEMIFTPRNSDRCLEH

[17] = Genotoxicity in human MCF7 cells assessed as abnormal tail nuclei measured after 48 hrs by ethidium bromide staining based fluorescent microscopic analysis; type: toxicity, cell-based; settings: mcf7, 48 h
[18] = Genotoxicity in human MCF7 cells assessed as appearance of damaged DNA structures measured after 48 hrs by ethidium bromide staining based fluorescent microscopic analysis; type: toxicity, cell-based; settings: mcf7, 48 h
[19] = Genotoxicity in human MDA-MB-231 cells assessed as appearance of damaged DNA structures measured after 48 hrs by ethidium bromide staining based fluorescent microscopic analysis; type: toxicity, cell-based; settings: mda-mb-231, 48 h
[20] = Genotoxicity in human MDA-MB-231 cells assessed as abnormal tail nuclei measured after 48 hrs by ethidium bromide staining based fluorescent microscopic analysis; type: toxicity, cell-based; settings: mda-mb-231, 48 h
[21] = Drug localization in mitochondria of human MDA-MB-231 cells at 2 uM incubated for 45 mins by MitoTracker dye based confocal laser scanning microscopic analysis; type: ADME; settings: mda-mb-231, 0.75 h

Compound: C[n+]1ccc(/C=C/c2cc3c(O)c(c2)Cc2cc(C(C)(C)C)cc(c2OCCCn2cc(CBr)nn2)Cc2cc(/C=C/c4cc[n+](C)cc4)cc(c2O)Cc2cc(C(C)(C)C)cc(c2OCCCn2cc(CBr)nn2)C3)cc1
- IC50 at 48 h [1]: 86.4 µM
- IC50 [2]: 28.4 µM
- IC50 [3]: 22.8 µM

Compound: C[n+]1ccc(/C=C/c2cc3c(O)c(c2)Cc2cc(C(C)(C)C)cc(c2OCCCn2cc(CN4C(=O)C(=O)c5ccccc54)nn2)Cc2cc(/C=C/c4cc[n+](C)cc4)cc(c2O)Cc2cc(C(C)(C)C)cc(c2OCCCn2cc(CN4C(=O)C(=O)c5ccccc54)nn2)C3)cc1.[I-].[I-]
- IC50 at 48 h [1]: 77.6 µM
- IC50 [2]: 19.2 µM
- IC50 [3]: 9.24 µM
- Live cells [4]: 99.14%
- Activity [5]: 0.16%
- Activity [6]: 0.08%
- Activity [7]: 0.63%
- Activity [8]: 91.42%
- Activity [9]: 0.26%
- Activity [10]: 1.66%
- Activity [11]: 6.66%
- Activity [12]: 50.95%
- Activity [13]: 8.09%
- Activity [14]: 37.69%
- Activity [15]: 3.27%
- IC50 [16]: 0.518 µM
- Activity [17]: Toxic
- Activity [18]: Toxic
- Activity [19]: Toxic
- Activity [20]: Toxic

Compound: C[n+]1ccc(/C=C/c2cc3c(O)c(c2)Cc2cc(C(C)(C)C)cc(c2OCCCn2cc(CN4C(=O)C(=O)c5cc(Cl)ccc54)nn2)Cc2cc(/C=C/c4cc[n+](C)cc4)cc(c2O)Cc2cc(C(C)(C)C)cc(c2OCCCn2cc(CN4C(=O)C(=O)c5cc(Cl)ccc54)nn2)C3)cc1.[I-].[I-]
- IC50 at 48 h [1]: 32.9 µM
- IC50 [2]: 8.83 µM
- IC50 [3]: 3.32 µM
- Live cells [4]: 97.91%
- Activity [5]: 1.74%
- Activity [6]: 0.25%
- Activity [7]: 0.11%
- Activity [8]: 83.4%
- Activity [9]: 0.23%
- Activity [10]: 2.74%
- Activity [11]: 13.63%
- Activity [12]: 53.45%
- Activity [13]: 4.56%
- Activity [14]: 36.24%
- Activity [15]: 5.75%
- IC50 [16]: 0.104 µM
- Drug uptake [21]: Active
- Activity [17]: Toxic
- Activity [18]: Toxic
- Activity [19]: Toxic
- Activity [20]: Toxic

Compound: Cc1ccc2c(c1)C(=O)C(=O)N2Cc1cn(CCCOc2c3cc(C(C)(C)C)cc2Cc2cc(/C=C/c4cc[n+](C)cc4)cc(c2O)Cc2cc(C(C)(C)C)cc(c2OCCCn2cc(CN4C(=O)C(=O)c5cc(C)ccc54)nn2)Cc2cc(/C=C/c4cc[n+](C)cc4)cc(c2O)C3)nn1.[I-].[I-]
- IC50 at 48 h [1]: 74.9 µM
- IC50 [2]: 10.2 µM
- IC50 [3]: 5.23 µM
- Live cells [4]: 95.6%
- Activity [5]: 3.99%
- Activity [6]: 0.35%
- Activity [7]: 0.06%
- Activity [8]: 83.89%
- Activity [9]: 0.02%
- Activity [10]: 1.31%
- Activity [11]: 14.78%
- Activity [12]: 71.51%
- Activity [13]: 10.49%
- Activity [14]: 15.04%
- Activity [15]: 2.96%
- IC50 [16]: 0.218 µM
- Activity [17]: Toxic
- Activity [18]: Toxic
- Activity [19]: Toxic
- Activity [20]: Toxic

Compound: C[n+]1ccc(/C=C/c2cc3c(O)c(c2)Cc2cc(C(C)(C)C)cc(c2OCCCn2cc(CN4C(=O)C(=O)c5cc(Br)ccc54)nn2)Cc2cc(/C=C/c4cc[n+](C)cc4)cc(c2O)Cc2cc(C(C)(C)C)cc(c2OCCCn2cc(CN4C(=O)C(=O)c5cc(Br)ccc54)nn2)C3)cc1.[I-].[I-]
- IC50 at 48 h [1]: 57.2 µM
- IC50 [2]: 10.1 µM
- IC50 [3]: 3.78 µM
- Live cells [4]: 96.14%
- Activity [5]: 2.6%
- Activity [6]: 1.13%
- Activity [7]: 0.14%
- Activity [8]: 87.12%
- Activity [9]: 0.4%
- Activity [10]: 1.6%
- Activity [11]: 10.87%
- Activity [12]: 40.42%
- Activity [13]: 34.66%
- Activity [14]: 24.62%
- Activity [15]: 0.3%
- IC50 [16]: 0.315 µM
- Activity [17]: Toxic
- Activity [18]: Toxic
- Activity [19]: Toxic
- Activity [20]: Toxic

Compound: C[n+]1ccc(/C=C/c2cc3c(O)c(c2)Cc2cc(C(C)(C)C)cc(c2OCCCn2cc(CN4C(=O)C(=O)c5cc(I)ccc54)nn2)Cc2cc(/C=C/c4cc[n+](C)cc4)cc(c2O)Cc2cc(C(C)(C)C)cc(c2OCCCn2cc(CN4C(=O)C(=O)c5cc(I)ccc54)nn2)C3)cc1.[I-].[I-]
- IC50 at 48 h [1]: 72.5 µM
- IC50 [2]: 15.1 µM
- IC50 [3]: 3.98 µM
- Live cells [4]: 96.68%
- Activity [5]: 2.22%
- Activity [6]: 1.09%
- Activity [7]: 0.02%
- Activity [8]: 84.61%
- Activity [9]: 0.21%
- Activity [10]: 1.57%
- Activity [11]: 13.61%
- Activity [12]: 49.15%
- Activity [13]: 12.97%
- Activity [14]: 36.55%
- Activity [15]: 1.33%
- IC50 [16]: 1.03 µM
- Activity [17]: Toxic
- Activity [18]: Toxic
- Activity [19]: Toxic
- Activity [20]: Toxic

Compound: C[n+]1ccc(/C=C/c2cc3c(O)c(c2)Cc2cc(C(C)(C)C)cc(c2OCCCn2cc(CN4C(=O)C(=O)c5cc(F)ccc54)nn2)Cc2cc(/C=C/c4cc[n+](C)cc4)cc(c2O)Cc2cc(C(C)(C)C)cc(c2OCCCn2cc(CN4C(=O)C(=O)c5cc(F)ccc54)nn2)C3)cc1.[I-].[I-]
- IC50 at 48 h [1]: 62.9 µM
- IC50 [2]: 11.6 µM
- IC50 [3]: 5.59 µM
- Live cells [4]: 93.92%
- Activity [5]: 5.69%
- Activity [6]: 0.28%
- Activity [7]: 0.1%
- Activity [8]: 64.85%
- Activity [9]: 0.11%
- Activity [10]: 2.03%
- Activity [11]: 33.01%
- Activity [12]: 41.92%
- Activity [13]: 2.18%
- Activity [14]: 45.79%
- Activity [15]: 10.11%
- IC50 [16]: 0.711 µM
- Activity [17]: Toxic
- Activity [18]: Toxic
- Activity [19]: Toxic
- Activity [20]: Toxic

Compound: O=c1[nH]cc(F)c(=O)[nH]1 [FLUOROURACIL]
- IC50 at 48 h [1]: 192 µM
- IC50 [2]: 35.3 µM
- IC50 [3]: 6.81 µM
